Experimental data published in patent publication US20220031657A1 (NOVARTIS AG, priority 2017, published 2022).
Marks after values point to notes of the source that are not given here.

Legend:
[1] = tested on: MCF-7 cell line; assay: Insulin driven proliferation assay; type: cell-based, human
[2] = tested on: MCF-7 xenograft; assay: Orthotopic MCF-7 xenograft model in NSG mice; type: in vivo; details: for anti-tumor effect in words: LSZ102 20 mg/kg QD, tamoxifen 60 mg/kg, fulvestrant 5 mg/mouse
Method: Mice were supplemented with estradiol (0.72 mg estradiol/90-day release pellets) to further support MCF-7 tumor growth several days prior to cell implantation. MCF-7 tumors were established in female NSG mice by injection of 10×10^6 cells in 50% Matrigel® into the axillary mammary fat pad area of each mouse. When tumors reached an average of 200 mm^3, mice were randomized according to tumor volume into treatment groups (n=8).

[3] = tested on: MCF-7 xenograft; assay: Dose fractionation study in mice with MCF-7 xenografts; type: in vivo; details: 5 mg/mouse SC QWeek, Day 61
[4] = tested on: HBRX1298 xenograft; assay: ER+ primary breast cancer model HBRX1298 in NSG mice; type: in vivo; details: 5 mg/mouse SC QWeek, Day 63
Method: HBRX1298 tumors were established in NSG female mice by injection of a tumor brei into the inguinal mammary fat pad area. Mice were implanted with 0.72 mg estradiol/90-day release pellets several days prior to cell implantation. When tumors reached approximately 250 mm3, mice were randomized according to tumor volume into treatment groups (n=6 for all, except n=4 for estradiol withdrawal) on Day 38.

[5] = target: T1, ERα (Homo sapiens, UniProt P03372); assay: Immunoblot ERα protein quantification, MCF-7 parental cells; details: 24 hr
T1 sequence (P03372 1-595): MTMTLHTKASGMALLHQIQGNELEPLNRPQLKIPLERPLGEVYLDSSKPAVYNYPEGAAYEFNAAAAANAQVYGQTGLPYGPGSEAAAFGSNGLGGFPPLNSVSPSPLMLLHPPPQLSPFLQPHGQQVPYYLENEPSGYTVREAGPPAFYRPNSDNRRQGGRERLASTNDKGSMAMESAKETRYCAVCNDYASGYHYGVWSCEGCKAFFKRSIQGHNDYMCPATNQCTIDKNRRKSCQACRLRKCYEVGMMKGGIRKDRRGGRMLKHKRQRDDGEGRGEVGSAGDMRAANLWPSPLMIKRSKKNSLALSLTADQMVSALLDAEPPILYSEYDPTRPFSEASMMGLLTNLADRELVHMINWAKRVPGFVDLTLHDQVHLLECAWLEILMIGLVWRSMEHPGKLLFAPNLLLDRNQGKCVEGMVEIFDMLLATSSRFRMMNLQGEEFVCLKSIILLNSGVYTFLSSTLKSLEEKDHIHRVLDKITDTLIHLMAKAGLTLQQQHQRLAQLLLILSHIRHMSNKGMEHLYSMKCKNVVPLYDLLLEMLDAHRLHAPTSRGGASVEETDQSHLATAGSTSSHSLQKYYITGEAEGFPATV

SMILES | effect in insulin driven proliferation assay [1] | anti-tumor effect in words [2] | ΔT/ΔC (%) [3] | ΔT/ΔC (%) ([2]; 5 mg/mouse SC QWeek, Day 48) | ΔT/ΔC (%) [4] | ER protein levels [5]
CC/C(=C(\c1ccccc1)c1ccc(OCCN(C)C)cc1)c1ccccc1 [Tamoxifen] | unaffected | tumor stasis | – | – | – | –
C[C@]12CC[C@@H]3c4ccc(O)cc4C[C@@H](CCCCCCCCC[S+]([O-])CCCC(F)(F)C(F)(F)F)[C@H]3[C@@H]1CC[C@@H]2O (some centres unmarked) [Fulvestrant] | inhibited | suppression of growth | 18* % | 24* % | 48* % | significantly reduce ER protein levels
